Measured values from patent EP4803513A1, “SUBSTITUTED QUINAZOLINE COMPOUND, PREPARATION METHOD THEREFOR, PHARMACEUTICAL COMBINATION THEREOF, AND USE THEREOF” (Hongyun Biotech Co., Ltd., priority 2023, dated 2025).

Test system: BRK-BaF3 cells
Assay: Cell antiproliferative activity assay (CCK-8), BRK-BaF3
Assay type: cell-based
Conditions: 72 h, CCK-8, 3 days incubation
Procedure: The activity of compounds against BRK kinase can be evaluated by their inhibition of the growth of the BRK kinase-stably transfected BaF3 cell line (BRK-BaF3) and wild-type BaF3 cells (WT-BaF3). […] The larger the ratio of the half-maximal growth inhibitory concentration (IC50) of a compound between WT-BaF3 and BRK-BaF3 cells, the better the selectivity of the compound.
BRK-BaF3, WT-BaF3, WEHI cell line, and breast cancer cell line T47D were cultured using RPMI 1640 Basal medium or DMEM (Dulbecco's Modified Eagle Medium) (Shanghai Peiyuan Biotechnology, L220KJ), supplemented with 10% FBS (Gibco, REF 10099-141C) and 1% P/S (Shanghai Peiyuan Biotechnology, S110JV), in an incubator (Thermo 3020) at 37°C with 5% CO2. Cell viability was above 95%. Cells were passaged at a 3:1 ratio every 3-4 days. For WT-BaF3 cells, WEHI cells were first cultured, and their culture supernatant was filtered through a 0.22 µm filter. This supernatant was added at 10% to the regular culture medium to supplement IL-3 required for WT-BaF3 cell proliferation, which served as the culture medium for WT-BaF3. For testing, cells were first collected and counted, then prepared into a cell suspension at 100,000 cells/mL and plated at 100 µL per well. Drug concentrations started from 10 µM and were serially diluted 3:1. After incubation for 3 days, 20 µL of CCK-8 detection reagent (Targetmol C005) was added to each well. After incubation for 2-4 hours, OD450 was measured using a microplate reader (Varioskan LUX, Thermo Scientific). After subtracting the blank background, the curve was fitted and the IC50 was calculated using XLfit software.

IC50 [nM] | SMILES
≤ 20 | Cc1ccc(C#N)nc1-c1cc(C(C)C)c2nc(Nc3cn(CCO)nc3C)ncc2c1 [I-5]
20 to 100 | Cc1nn(CCO)cc1Nc1ncc2cc(-c3ccnc(F)c3F)cc(C(C)C)c2n1 [I-15]
≤ 20 | Cc1nn(CCO)cc1Nc1ncc2cc(-c3cc(F)ncc3F)cc(C(C)C)c2n1 [I-16]
≤ 20 | CC(=O)c1cc(-c2cc(C(C)C)c3nc(Nc4cn(CCO)nc4C)ncc3c2)ccn1 [I-18]
20 to 100 | Cc1cnc(F)cc1-c1cc(C(C)C)c2nc(Nc3cnn(CCO)c3C)ncc2c1 [I-19]
20 to 100 | Cc1nn(CCO)cc1Nc1ncc2cc(-c3cccnc3C(F)F)cc(C(C)C)c2n1 [I-23]
≤ 20 | CCc1ncccc1-c1cc(C(C)C)c2nc(Nc3cn(CCO)nc3C)ncc2c1 [I-24]
≤ 20 | Cc1nn(CCO)cc1Nc1ncc2cc(-c3cncc(Br)c3Cl)cc(C(C)C)c2n1 [I-37]
≤ 20 | Cc1nn(CCO)cc1Nc1ncc2cc(-c3cncc(Cl)c3Cl)cc(C(C)C)c2n1 [I-38]
20 to 100 | Cc1c(Nc2ncc3cc(-c4cnccc4F)cc(C(C)C)c3n2)cnn1CCO [I-58]
20 to 100 | Cc1c(Nc2ncc3cc(-c4cnccc4C#N)cc(C(C)C)c3n2)cnn1CCO [I-63]
≤ 20 | Cc1c(F)cncc1-c1cc(C(C)C)c2nc(Nc3cnn(CCO)c3C)ncc2c1 [I-67]
20 to 100 | Cc1ncc(F)cc1-c1cc(C(C)C)c2nc(Nc3cnn(CCO)c3C)ncc2c1 [I-69]
≤ 20 | Cc1c(Nc2ncc3cc(-c4c(F)ccnc4F)cc(C(C)C)c3n2)cnn1CCO [I-70]
≤ 20 | Cc1ccnc(C)c1-c1cc(C(C)C)c2nc(Nc3cnn(CCO)c3C)ncc2c1 [I-71]
≤ 20 | Cc1nn(CCO)cc1Nc1ncc2cc(-c3nccnc3Cl)cc(C(C)C)c2n1 [I-80]
20 to 100 | Cc1nn(CCO)cc1Nc1ncc2cc(-c3cncc(Cl)n3)cc(C(C)C)c2n1 [I-89]
20 to 100 | COc1cncc(-c2cc(C(C)C)c3nc(Nc4cn(CCO)nc4C)ncc3c2)n1 [I-91]
20 to 100 | Cc1nn(CCO)cc1Nc1ncc2cc(-c3cccnn3)cc(C(C)C)c2n1 [I-115]
20 to 100 | Cc1ncnc(C)c1-c1cc(C(C)C)c2nc(Nc3cnn(CCO)c3C)ncc2c1 [I-145]
≤ 20 | Cc1nn(CCO)cc1Nc1ncc2cc(-c3cccc(F)c3F)cc(C(C)C)c2n1 [I-156]
≤ 20 | Cc1nn(CCO)cc1Nc1ncc2cc(-c3cc(F)cc(F)c3)cc(C(C)C)c2n1 [I-158]
≤ 20 | Cc1nn(CCO)cc1Nc1ncc2cc(-c3cc(F)ccc3F)cc(C(C)C)c2n1 [I-159]
≤ 20 | Cc1ccc(F)cc1-c1cc(C(C)C)c2nc(Nc3cn(CCO)nc3C)ncc2c1 [I-161]
≤ 20 | Cc1nn(CCO)cc1Nc1ncc2cc(-c3cccc4c3OCO4)cc(C(C)C)c2n1 [I-163]

IC50 [nM] | SMILES
20 to 100 | Cc1nn(CCO)cc1Nc1ncc2cc(-c3cccc4c3OCO4)cc(C3CC3)c2n1 [I-166]
20 to 100 | Cc1c(Nc2ncc3cc(-c4cc(F)ccc4F)cc(C(C)C)c3n2)cnn1CCO [I-169]
≤ 20 | Cc1ccc(F)cc1-c1cc(C(C)C)c2nc(Nc3cnn(CCO)c3C)ncc2c1 [I-171]
≤ 20 | Cc1c[nH]c(=O)cc1-c1cc(C(C)C)c2nc(Nc3cn(CCO)nc3C)ncc2c1 [I-172]
20 to 100 | Cc1c[nH]c(=O)cc1-c1cc(C(C)C)c2nc(Nc3cn(C(C)(C)CO)nc3C)ncc2c1 [I-173]
≤ 20 | Cc1c[nH]c(=O)cc1-c1cc(C(C)C)c2nc(Nc3cnn(CCO)c3)ncc2c1 [I-174]
≤ 20 | Cc1c[nH]c(=O)cc1-c1cc(C(C)C)c2nc(Nc3cn(CC(C)(C)O)nc3C)ncc2c1 [I-175]
≤ 20 | Cc1c[nH]c(=O)cc1-c1cc(C(C)C)c2nc(Nc3cnn(CC(C)(C)O)c3C)ncc2c1 [I-180]
≤ 20 | Cc1ccc2[nH]ncc2c1-c1cc(C(C)C)c2nc(Nc3cn(CCO)nc3C)ncc2c1 [I-182]
≤ 20 | Cc1ccc2[nH]ncc2c1-c1cc(C(C)C)c2nc(Nc3cnn(CCO)c3C)ncc2c1 [I-183]
≤ 20 | Cc1nn(CCO)cc1Nc1ncc2cc(-c3cncc4ccccc34)cc(C(C)C)c2n1 [I-184]
20 to 100 | Cc1cc2cn[nH]c2cc1-c1cc(C(C)C)c2nc(Nc3cn(CCO)nc3C)ncc2c1 [I-185]
20 to 100 | Cc1nn(CCO)cc1Nc1ncc2cc(-c3c[nH]c4ncccc34)cc(C(C)C)c2n1 [I-186]
20 to 100 | Cc1nn(C)cc1Nc1ncc2cc(-c3cc[nH]c(=O)c3)cc(C(C)C)c2n1 [III-1]
≤ 20 | Cc1c[nH]c(=O)cc1-c1cc(C(C)C)c2nc(Nc3cnn(C)c3C)ncc2c1 [III-3]
≤ 20 | Cc1c[nH]c(=O)cc1-c1cc(C(C)C)c2nc(Nc3cn(C)nc3Cl)ncc2c1 [III-5]
20 to 100 | COc1nn(C)cc1Nc1ncc2cc(-c3cc(=O)[nH]cc3C)cc(C(C)C)c2n1 [III-6]
≤ 20 | Cc1c[nH]c(=O)cc1-c1cc(C(C)C)c2nc(Nc3cn(C(F)F)nc3C)ncc2c1 [III-7]
≤ 20 | Cc1c[nH]c(=O)cc1-c1cc(C(C)C)c2nc(Nc3cnn(C(F)F)c3C)ncc2c1 [III-8]
≤ 20 | [2H]C([2H])([2H])n1ncc(Nc2ncc3cc(-c4cc(=O)[nH]cc4C)cc(C(C)C)c3n2)c1C [III-10]
≤ 20 | Cc1c[nH]c(=O)cc1-c1cc(C(C)C)c2nc(Nc3c[nH]nc3C)ncc2c1 [III-11]
≤ 20 | CCn1cc(Nc2ncc3cc(-c4cc(=O)[nH]cc4C)cc(C(C)C)c3n2)c(C)n1 [III-12]
≤ 20 | Cc1c[nH]c(=O)cc1-c1cc(C(C)C)c2nc(Nc3cn(C4CCN(C)CC4)nc3C)ncc2c1 [III-13]
≤ 20 | Cc1c[nH]c(=O)cc1-c1cc(C(C)C)c2nc(Nc3cn(C4CCN(C(C)C)CC4)nc3C)ncc2c1 [III-16]
≤ 20 | Cc1c[nH]c(=O)cc1-c1cc(C(C)C)c2nc(Nc3cnn(C4CCN(C(C)C)CC4)c3C)ncc2c1 [III-17]

IC50 [nM] | SMILES
20 to 100 | Cc1c[nH]c(=O)cc1-c1cc(C(C)C)c2nc(Nc3cn(C4CCN(C5COC5)CC4)nc3C)ncc2c1 [III-18]
20 to 100 | Cc1c[nH]c(=O)cc1-c1cc(C(C)C)c2nc(Nc3cn([C@@H]4C[C@H]5CC[C@@H](C4)N5C)nc3C)ncc2c1 [III-25]
≤ 20 | Cc1c[nH]c(=O)cc1-c1cc(C(C)C)c2nc(Nc3cnn([C@@H]4C[C@H]5CC[C@@H](C4)N5C)c3C)ncc2c1 [III-26]
≤ 20 | Cc1c[nH]c(=O)cc1-c1cc(C(C)C)c2nc(Nc3cn(C4CCN(C)CC4)nc3C(F)(F)F)ncc2c1 [III-27]
≤ 20 | Cc1c[nH]c(=O)cc1-c1cc(C(C)C)c2nc(Nc3cnn(C4CCN(C)CC4)c3C(F)(F)F)ncc2c1 [III-28]
≤ 20 | CCc1nn(C2CCN(C)CC2)cc1Nc1ncc2cc(-c3cc(=O)[nH]cc3C)cc(C(C)C)c2n1 [III-29]
≤ 20 | CCc1c(Nc2ncc3cc(-c4cc(=O)[nH]cc4C)cc(C(C)C)c3n2)cnn1C1CCN(C)CC1 [III-30]
≤ 20 | COc1nn(C2CCN(C)CC2)cc1Nc1ncc2cc(-c3cc(=O)[nH]cc3C)cc(C(C)C)c2n1 [III-31]
≤ 20 | COc1nn(C2CCN(C(C)C)CC2)cc1Nc1ncc2cc(-c3cc(=O)[nH]cc3C)cc(C(C)C)c2n1 [III-32]
20 to 100 | Cc1c[nH]c(=O)cc1-c1cc(C(C)C)c2nc(Nc3cn(-c4cncnc4)nc3C)ncc2c1 [III-34]
≤ 20 | Cc1c[nH]c(=O)cc1-c1cc(C(C)C)c2nc(Nc3cn(C4CCCN(C)CC4)nc3C)ncc2c1 (stereo not drawn) [III-35]
≤ 20 | Cc1c[nH]c(=O)cc1-c1cc(C(C)C)c2nc(Nc3cnn(C4CCCN(C)CC4)c3C)ncc2c1 (stereo not drawn) [III-36]
≤ 20 | Cc1c[nH]c(=O)cc1-c1cc(C(C)C)c2nc(Nc3cn(C4CCN(C)C4)nc3C)ncc2c1 (stereo not drawn) [III-38]
≤ 20 | Cc1c[nH]c(=O)cc1-c1cc(C(C)C)c2nc(Nc3cn(C4CCN(C(C)C)C4)nc3C)ncc2c1 (stereo not drawn) [III-39]
≤ 20 | Cc1c[nH]c(=O)cc1-c1cc(C(C)C)c2nc(Nc3cn(C4COC4)nc3C)ncc2c1 [III-40]
≤ 20 | COCCn1cc(Nc2ncc3cc(-c4cc(=O)[nH]cc4C)cc(C(C)C)c3n2)c(C)n1 [III-42]
≤ 20 | COCCn1ncc(Nc2ncc3cc(-c4cc(=O)[nH]cc4C)cc(C(C)C)c3n2)c1C [III-43]
20 to 100 | COCCOCCn1cc(Nc2ncc3cc(-c4cc(=O)[nH]cc4C)cc(C(C)C)c3n2)c(C)n1 [III-44]
≤ 20 | COC[C@@H](C)n1cc(Nc2ncc3cc(-c4cc(=O)[nH]cc4C)cc(C(C)C)c3n2)c(C)n1 [III-45]
≤ 20 | COC[C@@H](C)n1ncc(Nc2ncc3cc(-c4cc(=O)[nH]cc4C)cc(C(C)C)c3n2)c1C [III-46]
≤ 20 | Cc1c[nH]c(=O)cc1-c1cc(C(C)C)c2nc(Nc3cn([C@@H](C)C(=O)N(C)C)nc3C)ncc2c1 [III-48]
20 to 100 | Cc1c[nH]c(=O)cc1-c1cc(C(C)C)c2nc(Nc3cnn([C@@H](C)C(=O)N(C)C)c3C)ncc2c1 [III-49]
≤ 20 | CCN(C)CCn1cc(Nc2ncc3cc(-c4cc(=O)[nH]cc4C)cc(C(C)C)c3n2)c(C)n1 [III-51]
≤ 20 | CCN(C)CCn1ncc(Nc2ncc3cc(-c4cc(=O)[nH]cc4C)cc(C(C)C)c3n2)c1C [III-52]
≤ 20 | COCCN(C)CCn1cc(Nc2ncc3cc(-c4cc(=O)[nH]cc4C)cc(C(C)C)c3n2)c(C)n1 [III-54]
